Results on 3 compounds are retold here after US8697641B2, “4-amino-4-oxobutanoyl peptide cyclic analogues, inhibitors of viral replication” (Achillion Pharmaceuticals, Inc., priority 2008, dated 2014).

As usually defined, the EC50 is the concentration needed to bring the measured effect to its halfway point.

Each structure is given as a SMILES string.

For this experiment, the system named is Hepatitis C replicon. Briefly: HCV replicon assay (NPT ELISA readout) in Huh-7 replicon-containing cells. Type of experiment: cell-based, Hepatitis C virus. The conditions noted are these: Hepatitis C virus, 72 h; HCV replicon in Huh-7 cells, three days incubation. In a few lines: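 Huh-7 cells carrying a neo-containing HCV subgenomic replicon (NS3-NS5B) were plated overnight, then exposed to compound (generally 6 concentrations, 10 to 0.03 μM) for three days at 37 °C. Replication was read as NPT level by captured ELISA; interferon alpha served as positive control.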
(In antiviral work, replicon cells carry a viral genome segment that copies itself.)
In the case of `COc1ccc2c(O[C@@H]3C[C@H]4C(=O)N[C@]5(C(=O)NS(=O)(=O)C6CC6)C[C@H]5/C=C\CCCCC[C@H](CC(=O)N5CC(C)OC(C)C5)C(=O)N4C3)cc(-c3ccccc3)nc2c1` (stereo partly drawn) [Compound 76, (2R,6R,13aS, 14aR,16aS,Z)-N-(cyclopropylsulfonyl)-6-(2-(2,6-dimethylmorpholino)-2-oxoethyl)-2-(7-methoxy-2-phenylquinolin-4-yloxy)-5,16-dioxo-1,2,3,5,6,7,8,9,10,11, 13a,14,14a,15,16,16a-hexadecahydrocyclopropa [e]pyrrolo[1,2-a][1,4] diazacyclopentadecine-14a-carboxamide], the EC50 was below 1000 nM.

For `COc1ccc2c(O[C@@H]3C[C@H]4C(=O)N[C@]5(C(=O)NS(=O)(=O)C6CC6)C[C@H]5/C=C\CCCCC[C@H](CC(=O)N5CCCC(F)(F)C5)C(=O)N4C3)cc(-c3nc(C(C)C)cs3)nc2c1C` [Compound 128, (2R,6R,14aR,16aS,Z)-N-(cyclopropylsulfonyl)-6-(2-(3,3-difluoropiperidin-1-yl)-2-oxoethyl)-2-(2-(4-isopropylthiazol-2-yl)-7-methoxy-8-methylquinolin-4-yloxy)-5,16-dioxo-1,2,3,5,6,7,8,9,10,11, 13a,14,14a,15,16,16a-hexadecahydrocyclopropa [e]pyrrolo[1,2-a][1,4] diazacyclopentadecine-14a-carboxamide], the EC50 is below 1000 nM. With `COc1ccc2c(O[C@@H]3C[C@H]4C(=O)N[C@]5(C(=O)NS(=O)(=O)C6CC6)C[C@H]5/C=C\CCCCC[C@H](CC(=O)NC5CCCC5)C(=O)N4C3)cc(-c3ccccc3)nc2c1` [Compound 73, (2R,6R,13aS,14aR, 16aS,Z)-6-(2-(cyclopentylamino)-2-oxoethyl)-N-(cyclopropylsulfonyl)-2-(7-methoxy-2-phenylquinolin-4-yloxy)-5,16-dioxo-1,2,3,5,6,7,8,9,10,11, 13a,14,14a,15,16,16a-hexadecahydrocyclopropa [e]pyrrolo[1,2-a][1,4] diazacyclopentadecine-14a-carboxamide], the half-maximal effective concentration (EC50) is below 1000 nM.
